These results are taken from publication PMC11513842, “Development of an orally bioavailable CDK12/13 degrader and induction of synthetic lethality with AKT pathway inhibition” (Cell Reports Medicine, 2024).

The subject of series [1] is VCaP cells. Put plainly: Cell viability assay (CellTiter-Glo, 5 days). In kind it is cell-based, human. As to the method:
(§1) Cells were seeded in 96-well plates and incubated at 37°C with 5% CO2 overnight. A series of compound dilutions were added into the cells. After 5 days incubation, cell proliferation was tested using the CellTiter-Glo assay (Promega) according to the manufacturer’s protocol. Luminescence was measured using the Infinite M1000 Pro plate reader (Tecan). Data analysis was conducted using GraphPad Prism software.

The subject of another series is 22RV1. Put plainly: Cell viability assay (CellTiter-Glo, 5 days). In kind it is cell-based. The note with it: Homo sapiens, 120 h; 22RV1, 5 days of treatment, Figure 1F. As to the method:
as §1
(In general: Cellular ATP, detected with luciferase, serves as a proxy for viable cell number.)

A further series has as its system BPH-1. In words: Cell viability assay (CellTiter-Glo, 5 days). It counts as cell-based. The note with it: Homo sapiens, 120 h; BPH-1, 5 days of treatment, Figure 1F. As to the method: as §1
Another series deals with CWR22RV1. Put plainly: Cell viability assay (CellTiter-Glo, 5 days). In kind it is cell-based. The note with it: Homo sapiens, 120 h; CWR22RV1, 5 days of treatment, Figure 1F. As to the method: as §1
The next series deals with DU145. Put plainly: Cell viability assay (CellTiter-Glo, 5 days). It counts as cell-based. The note with it: Homo sapiens, DU-145, 120 h; DU145, 5 days of treatment, Figure 1F. As to the method: as §1
The next series has as its system LAPC4. Put plainly: Cell viability assay (CellTiter-Glo, 5 days). In kind it is cell-based. The settings on record: Homo sapiens, 120 h; LAPC4, 5 days of treatment, Figure 1F. As to the method:
as §1

The next series deals with MCF10A. Put plainly: Cell viability assay (CellTiter-Glo, 5 days). In kind it is cell-based. The settings on record: Homo sapiens, MCF-10A, 120 h, 5 days of treatment, Figure 1F. As to the method:
as §1

In another series the test system is MCF12A. Put plainly: Cell viability assay (CellTiter-Glo, 5 days). In kind it is cell-based. The note with it: Homo sapiens, MCF-12A, 120 h, 5 days of treatment, Figure 1F. As to the method:
as §1

In a further series the test system is MCF7. Put plainly: Cell viability assay (CellTiter-Glo, 5 days). The note with it: Homo sapiens, 120 h; MCF7, 5 days of treatment, Figure 1F. In kind it is cell-based. As to the method:
as §1

The subject of the next series is MDA-MB-468. Put plainly: Cell viability assay (CellTiter-Glo, 5 days). It counts as cell-based. The note with it: Homo sapiens, 120 h; MDA-MB-468, 5 days of treatment, Figure 1F. As to the method: as §1
The test system of a further series is MFM223. Put plainly: Cell viability assay (CellTiter-Glo, 5 days). It counts as cell-based. The settings on record: Homo sapiens, MFM-223, 120 h; MFM223, 5 days of treatment, Figure 1F. As to the method: as §1
For the next series, the system named is PC3. Put plainly: Cell viability assay (CellTiter-Glo, 5 days). It counts as cell-based. The note with it: Homo sapiens, PC-3, 120 h; PC3, 5 days of treatment, Figure 1F. As to the method: as §1
In another series the test system is PNT2. In words: Cell viability assay (CellTiter-Glo, 5 days). The note with it: Homo sapiens, 120 h; PNT2, 5 days of treatment, Figure 1F. It counts as cell-based. As to the method: as §1
For a further series, the system named is PrEC. Put plainly: Cell viability assay (CellTiter-Glo, 5 days). It counts as cell-based. The note with it: Homo sapiens, 120 h, 5 days of treatment, Figure 1F. As to the method:
as §1

In a further series the test system is RWPE1. Put plainly: Cell viability assay (CellTiter-Glo, 5 days). In kind it is cell-based. The note with it: Homo sapiens, RWPE-1, 120 h; RWPE1, 5 days of treatment, Figure 1F. As to the method:
as §1

A further series has as its system SK-BR-3. Put plainly: Cell viability assay (CellTiter-Glo, 5 days). In kind it is cell-based. The settings on record: Homo sapiens, 120 h; SK-BR-3, 5 days of treatment, Figure 1F. As to the method:
as §1

Another series has as its system WPMY-1. In words: Cell viability assay (CellTiter-Glo, 5 days). It counts as cell-based. The settings on record: Homo sapiens, 120 h; WPMY-1, 5 days of treatment, Figure 1F. As to the method:
as §1

For series [2], the system named is VCaP cells. Put plainly: Comet assay. In kind it is cell-based, human. The note with it: 100 nM, 12 h. As to the method:
VCaP cells were seeded in 6-well plates one day prior to treatment. […] After 12 h incubation, the cells were trypsinized and resuspended at a concentration of 1 × 10^5 cells/mL in ice-cold PBS. The OxiSelect Comet Assay Kit (Cell Biolabs, STA-351) was used to assess DNA damage. Following the manufacturer’s protocol, cells were combined with pre-heated comet agarose at a 1:10 ratio, mixed thoroughly, and then transferred onto slides. The slides were incubated horizontally in the dark at 4°C for 20 min. Afterward, they were immersed in pre-chilled lysis buffer for 40 min at 4°C in the dark, followed by a 30-min incubation in pre-chilled alkaline solution at 4°C in the dark. Electrophoresis was then performed using alkaline solution at 30 V for 20 min. After electrophoresis, the slides were rinsed three times with pre-chilled deionized water, following with 70% ethanol for 5 min and completely dried at 37°C for 30 min. Subsequently, 100 μL of diluted Vista Green DNA dye was applied to each well. After 15 min incubation at room temperature, the comets were observed using a fluorescence microscope and quantified using ImageJ. The quantification figure was generated using GraphPad Prism software.

For another series, the system named is CDK12 and CDK13. The note with it: VCaP cells. As to the method:
After treatment of varying conditions, cell lysates were prepared using RIPA buffer (ThermoFisher Scientific) supplemented with cOmplete protease inhibitor cocktail tablets (Sigma-Aldrich). The Pierce BCA Protein Assay Kit ([…]) was used to determine the protein concentrations. Proteins with an equal amount from each sample were loaded on NuPAGE 3–8% Tris-Acetate or 4–12% Bis-Tris protein gels (ThermoFisher Scientific) and subsequently transferred to membranes, which were blocked using 5% nonfat milk. Following blocking at room temperature for 1 h, the membrane was further incubated with varying primary antibodies at 4°C overnight. HRP-conjugated secondary antibodies were used for detection, and membrane imaging was conducted using an Odyssey Fc Imager (LI-COR Biosciences).

Series [3] can be described thus: Pharmacokinetic profile in Sprague Dawley rats. In kind it is in vivo, rat. The settings on record: SD rats.
The mark [4] stands for this setting: VCaP cells, 5 days, Figure S1E, read-out: IC50.
The mark [5] stands for this setting: VCaP cell viability, linker optimization, Figure S4B, read-out: VCaP IC50.

Molecules are shown by their SMILES. Several values for one entry are separate records, joined by “and”; a condition that tells them apart may be missing. Equal entries are not always repeated. Where two headings read alike, the source gives them in different places.

As for `CN(C)C/C=C/C(=O)Nc1ccc(C(=O)N2CCC[C@@H](Nc3ncc(Cl)c(-c4c[nH]c5ccccc45)n3)C2)cc1` [THZ531, reference compound], the IC50 was 33.5 nM in the series with VCaP cells [1] (Homo sapiens, VCaP, 120 h, VCaP, 5 days of treatment, Figure 1F, read-out: IC50); 85.7 nM with 22RV1; 356 nM in the series with BPH-1; 69.7 nM with CWR22RV1; 230 nM in the series with DU145; 6.38 nM with LAPC4. For the same molecule, the IC50 with MCF10A turned out to be 396 nM; in the series with MCF12A, 310 nM; in the series on MCF7, 356 nM; in the series with MDA-MB-468 it was 158 nM; in the series with MFM223, 33.3 nM; in the series on PC3, 120 nM. For the same molecule, the IC50 in the series with PNT2 came to 1530 nM; in the series with PrEC, 335 nM; with RWPE1 it was 404 nM; in the series on SK-BR-3, 64.8 nM; in the series on WPMY-1, 311 nM. Besides, the “DNA damage (tail moment)” value in the series on VCaP cells [2] was “significant increase in the tail moment”.
On to `CN1C(=O)CCC(N2C(=O)c3cccc(OCC(=O)N4CCN(c5ccc(N(C(=O)NCc6ccccc6)C6CCC(Nc7ncc8ccccc8n7)CC6)cc5)CC4)c3C2=O)C1=O` (stereo not shown) [YJ1078], for which the IC50 with VCaP cells [1] (setting [4]) was greater than 3000 nM. In the series with CDK12 and CDK13, the “CDK12/13 degradation (immunoblot)” value was “did not affect target protein levels”.
Regarding `O=C1CCC(N2C(=O)c3ccc(OCC(=O)N4CCN(c5ccc(N(C(=O)NCc6ccccc6)C6CCC(Nc7ncc8ccccc8n7)CC6)cc5)CC4)cc3C2=O)C(=O)N1` (stereo not shown) [YJ1090], the IC50 with VCaP cells [1] (setting [5]) is 93.8 nM. In addition, the “CDK12/13 degradation (immunoblot)” value with CDK12 and CDK13 is given as “retained the CDK12/13 degradation abilities”.
Take `O=C1CCC(N2Cc3ccc(OCC(=O)N4CCN(c5ccc(N(C(=O)NCc6ccccc6)C6CCC(Nc7ncc8ccccc8n7)CC6)cc5)CC4)cc3C2=O)C(=O)N1` (stereo not shown) [YJ1094]: the IC50 in the series with VCaP cells [1] (setting [5]) was found to be 25.2 nM. For the same molecule, the “CDK12/13 degradation (immunoblot)” value in the series with CDK12 and CDK13 is listed as “retained the CDK12/13 degradation abilities”.
With `O=C1CCC(N2C(=O)c3ccc(N4CCC(N5CCN(c6ccc(N(C(=O)NCc7ccccc7)C7CCC(Nc8ncc9ccccc9n8)CC7)cc6)CC5)C4)cc3C2=O)C(=O)N1` (stereo not shown) [YJ1096], the IC50 with VCaP cells [1] (setting [5]) came out at 97.8 nM. Besides, the “CDK12/13 degradation (immunoblot)” value in the series on CDK12 and CDK13 is “significantly decreased CDK12/13 degradation and cell viability”.
With `O=C1CCC(N2C(=O)c3ccc(N4CCC(N5CCN(c6ccc(N(C(=O)NCc7ccccc7)C7CCC(Nc8ncc9ccccc9n8)CC7)cc6)CC5)CC4)cc3C2=O)C(=O)N1` (stereo not shown) [YJ1105], the IC50 with VCaP cells [1] (setting [5]) was 15.1 nM and < 20 nM. Further, the “CDK12/13 degradation (immunoblot)” value in the series on CDK12 and CDK13 is recorded as “potent degradation effects”. Further, in series [3] (i.v. 2.5 mg/kg), the “AUC(0-t)” value was determined as 8039.69 ng·h/mL, the CL stood at 288.16 mL/h/kg, the peak level (Cmax) was 1580 nM and the T1/2 is on record as 7.05 h. Moreover, the Tmax in series [3] (i.v. 2.5 mg/kg) stood at 0.08 h. In [3] (oral 10 mg/kg), the “AUC(0-)” value was found to be 9805.4 ng·h/mL, the “AUC(0-t)” value worked out at 8567.43 ng·h/mL, the peak level (Cmax) was 715 nM and the T1/2 is given as 7.2 h. Further, the time of peak concentration (Tmax) in [3] (oral 10 mg/kg) came out at 6 h. For the same molecule, the “F(%) (bioavailability by oral gavage)” value in series [3] (oral 10 mg/kg vs i.v. 2.5 mg/kg) was 26.64%.
For the molecule `O=C1CCC(N2C(=O)c3ccc(C=CC(=O)N4CCN(c5ccc(N(C(=O)NCc6ccccc6)C6CCC(Nc7ncc8ccccc8n7)CC6)cc5)CC4)cc3C2=O)C(=O)N1` (stereo not shown) [YJ1114], in the series with VCaP cells [1] (setting [5]), the concentration for half-maximal inhibition (IC50) amounted to 2020 nM. Further, the “CDK12/13 degradation (immunoblot)” value in the series on CDK12 and CDK13 is “significantly decreased CDK12/13 degradation and cell viability”.
For `O=C1CCC(N2C(=O)c3ccc(-c4cccc(C(=O)N5CCN(c6ccc(N(C(=O)NCc7ccccc7)C7CCC(Nc8ncc9ccccc9n8)CC7)cc6)CC5)c4)cc3C2=O)C(=O)N1` (stereo not shown) [YJ1130], the half-inhibitory concentration (IC50) with VCaP cells [1] (setting [5]) was 126 nM. In the series with CDK12 and CDK13, the “CDK12/13 degradation (immunoblot)” value was “significantly decreased CDK12/13 degradation and cell viability”.
With `O=C1CCC(N2C(=O)c3ccc(N4CCC(N5CCN(c6ccc(N(C(=O)NCc7ccccc7)C7CCC(Nc8ncc9ccccc9n8)CC7)cn6)CC5)CC4)cc3C2=O)C(=O)N1` (stereo not shown) [YJ1205], the “CDK12/13 degradation (immunoblot)” value with CDK12 and CDK13 was “potent degradation effects”. Also, in [3] (i.v. 2.5 mg/kg), the “AUC(0-)” value was 10615.68 ng·h/mL, the “AUC(0-t)” value was found to be 10519.6 ng·h/mL, the CL is 235.84 mL/h/kg and the Cmax is 4140 nM. Besides, in [3] (i.v. 2.5 mg/kg), the T1/2 came to 3.81 h and the Tmax stood at 0.08 h. Besides, in [3] (oral 10 mg/kg), the “AUC(0-)” value came out at 6842.8 ng·h/mL, the “AUC(0-t)” value turned out to be 6679.0 ng·h/mL, the concentration peaked (Cmax) at 660 nM and the T1/2 amounted to 4.2 h. Besides, in [3] (oral 10 mg/kg), the Tmax is given as 4.7 h.
As to `O=C(NCc1ccccc1)N(c1ccc(N2CCNCC2)cc1)[C@H]1CC[C@H](Nc2ncc3ccccc3n2)CC1` [YJ9068], the IC50 in the series with VCaP cells [1] (setting [4]) was found to be 1080 nM. Further, in the series with CDK12 and CDK13, the “CDK12/13 degradation (immunoblot)” value is listed as “did not affect target protein levels”.
Turning to `O=C1CCC(N2C(=O)c3ccccc3C2=O)C(=O)N1` (stereo not shown) [thalidomide, reference compound], the “CDK12/13 degradation (immunoblot)” value in the series on CDK12 and CDK13 was “did not affect target protein levels”.

What is called IC50 is the concentration needed to halve the response being measured. As a reminder, the AUC(0-t) is exposure summed from dosing to a finite time, without extrapolation to infinity. A lower AUC(0-t) goes with less exposure. By Cmax is commonly meant the maximum level reached in the sampled fluid or tissue. The Tmax is the time at which the peak concentration occurs.
